This note sets out measurements from ChEMBL document CHEMBL3621068, “Synthesis and biological evaluation of a new class of quinazolinoneazoles as potential antimicrobial agents and their interactions with calf thymus DNA and human serum albumin” (Medchemcomm, 2015).

As a reminder, the MIC is the lowest concentration found to suppress growth. The low end stands for inhibition by little substance, the high end for a need for much substance.

The test system of one data set is Candida. In words: Antifungal activity against Candida mycoderma ATCC 9888 after 24 hrs by micro broth dilution assay. Format: functional. As to conditions: ATCC 9888, 24 h. (In broth dilution the organism is exposed to a series of concentrations in liquid medium.)
Data set [1] deals with Staphylococcus aureus. The data set is described as follows: Antibacterial activity against methicillin-resistant Staphylococcus aureus N315 after 24 hrs by micro broth dilution assay. Format: functional. The settings on record: N315, 24 h.
Data set [2] has as its system Staphylococcus aureus. In words: Antibacterial activity against Staphylococcus aureus ATCC 25923 after 24 hrs by micro broth dilution assay. Format: functional. As to conditions: ATCC 25923, 24 h.
Another data set has as its system Micrococcus luteus. In words: Antibacterial activity against Micrococcus luteus ATCC 4698 after 24 hrs by micro broth dilution assay. Format: functional. As to conditions: ATCC 4698, 24 h.
The subject of data set [3] is Calf thymus DNA. In words: Binding affinity to calf thymus DNA by UV-visible absorption spectroscopy. Format: nucleic-acid assay. As to conditions: Bos taurus.
A further data set concerns Bacillus sp. The data set is described as follows: Antibacterial activity against Bacillus proteus ATCC 13315 after 24 hrs by micro broth dilution assay. Format: functional. As to conditions: Bacillus sp. (in: firmicutes), ATCC 13315, 24 h.
In the next data set the test system is Saccharomyces cerevisiae. In words: Antifungal activity against Beer yeast ATCC 9763 after 24 hrs by micro broth dilution assay. Format: functional. As to conditions: ATCC 9763, 24 h.
Data set [4] deals with Calf thymus DNA. In words: Competitive binding affinity to calf thymus DNA using neutral red up to 2.0 x 10^-5 mol/L by UV-visible absorption spectroscopy. The settings on record: Bos taurus. Format: nucleic-acid assay.
The test system of a further data set is Escherichia coli. The data set is described as follows: Antibacterial activity against Escherichia coli DH52 after 24 hrs by micro broth dilution assay. Format: functional. As to conditions: DH52, 24 h.
A further data set relates to Aspergillus flavus. In words: Antifungal activity against Aspergillus flavus ATCC 204304 after 24 hrs by micro broth dilution assay. Format: functional. As to conditions: ATCC 204304, 24 h.
The next data set has as its target Albumin (Homo sapiens, UniProt P02768). In words: Binding affinity to human serum albumin assessed as fluorescence quenching at 10^-5 mol/L by fluorescence spectroscopy analysis. The settings on record: isolated protein, 10 µM. Format: ADME.
The next data set deals with Candida albicans. The data set is described as follows: Antifungal activity against Candida albicans ATCC 10231 after 24 hrs by micro broth dilution assay. Format: functional. As to conditions: ATCC 10231, 24 h.
Another data set deals with Cyberlindnera jadinii. In words: Antifungal activity against Candida utilis ATCC 9950 after 24 hrs by micro broth dilution assay. The settings on record: Williopsis jadinii, ATCC 9950, 24 h. Format: functional.
For a further data set, the system named is Pseudomonas aeruginosa. In words: Antibacterial activity against Pseudomonas aeruginosa ATCC 27853 a after 24 hrs by micro broth dilution assay. As to conditions: ATCC 27853, 24 h. Format: functional.
Data set [5] can be described thus: Antibacterial activity against Eberthella typhosa ATCC 14028 after 24 hrs by micro broth dilution assay. Format: functional. As to conditions: ATCC 14028, 24 h.
The test system of another data set is Bacillus spizizenii. In words: Antibacterial activity against Bacillus subtilis ATCC 6633 after 24 hrs by micro broth dilution assay. Format: functional. The settings on record: ATCC 6633, 24 h.

Converted amounts (≈) assume the structure as drawn. The source made the active and inactive calls. The rule behind the calls is not given here.

Chain of Albumin (P02768 whole entry): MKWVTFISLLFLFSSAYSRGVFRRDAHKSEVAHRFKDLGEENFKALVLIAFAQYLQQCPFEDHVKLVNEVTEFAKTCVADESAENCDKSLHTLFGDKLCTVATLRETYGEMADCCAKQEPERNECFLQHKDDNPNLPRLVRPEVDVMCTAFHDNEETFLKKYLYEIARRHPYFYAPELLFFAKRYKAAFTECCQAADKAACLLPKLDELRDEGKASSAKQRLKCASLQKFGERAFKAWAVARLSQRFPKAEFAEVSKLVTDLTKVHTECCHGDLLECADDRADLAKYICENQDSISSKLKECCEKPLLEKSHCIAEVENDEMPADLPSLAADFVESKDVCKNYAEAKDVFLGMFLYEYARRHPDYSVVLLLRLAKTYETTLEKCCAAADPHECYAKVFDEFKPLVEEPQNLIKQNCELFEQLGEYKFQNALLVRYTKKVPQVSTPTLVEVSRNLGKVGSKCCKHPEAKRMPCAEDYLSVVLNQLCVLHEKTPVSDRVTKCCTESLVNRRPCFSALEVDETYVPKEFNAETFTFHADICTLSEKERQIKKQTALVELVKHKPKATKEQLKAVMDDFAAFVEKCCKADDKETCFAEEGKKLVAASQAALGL

Turning to `Cc1ncc([N+](=O)[O-])n1CCn1cnc2cc(F)ccc2c1=O`, the MIC amounted to 30 µM (≈ 9.52 µg/mL) with Candida; 30 µM (≈ 9.52 µg/mL) in the data set on Staphylococcus aureus [1]; 30 µM (≈ 9.52 µg/mL) in the data set on Staphylococcus aureus [2]; 50 µM (≈ 15.9 µg/mL) in the data set with Micrococcus luteus; 50 µM (≈ 15.9 µg/mL) against Bacillus sp.; 30 µM (≈ 9.52 µg/mL) against Saccharomyces cerevisiae. In addition, the MIC in the data set with Escherichia coli was 30 µM (≈ 9.52 µg/mL); in the data set with Aspergillus flavus it was 30 µM (≈ 9.52 µg/mL); with Candida albicans, 30 µM (≈ 9.52 µg/mL); against Cyberlindnera jadinii, 30 µM (≈ 9.52 µg/mL); against Pseudomonas aeruginosa it was greater than 1610 µM; in [5], 30 µM (≈ 9.52 µg/mL). In the data set on Bacillus spizizenii, this molecule gave an MIC of 30 µM (≈ 9.52 µg/mL). Also, in the data set on Calf thymus DNA [3], the K was found to be 1.41 ×10⁴ L/mol. Besides, the outcome in the data set with Calf thymus DNA [4] was Active. At Albumin, the Kq came out at 0.1 ×10¹² L/mol/s.
